The source made the active and inactive calls. The calls are words filed in the database; no cut-off is given here.
How the values were obtained:
[1] = Inhibition of pepsin by radioligand binding assay
[2] = biological target: T1, Cathepsin E (Homo sapiens) (UniProt P14091); experiment: Inhibition of cathepsin E by radioligand binding assay
T1 sequence (whole entry): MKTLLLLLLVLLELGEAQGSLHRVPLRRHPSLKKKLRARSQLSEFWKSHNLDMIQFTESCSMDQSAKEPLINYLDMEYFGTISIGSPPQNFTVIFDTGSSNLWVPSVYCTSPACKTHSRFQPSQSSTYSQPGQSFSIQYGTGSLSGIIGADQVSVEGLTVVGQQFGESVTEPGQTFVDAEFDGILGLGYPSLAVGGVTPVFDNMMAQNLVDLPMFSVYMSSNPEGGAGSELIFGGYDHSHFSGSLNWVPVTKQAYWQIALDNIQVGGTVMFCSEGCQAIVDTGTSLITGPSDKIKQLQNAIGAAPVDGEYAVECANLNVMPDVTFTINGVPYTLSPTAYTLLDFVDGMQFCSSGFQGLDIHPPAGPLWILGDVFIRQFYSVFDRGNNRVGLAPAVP

[3] = biological target: Cathepsin D (Homo sapiens) (UniProt P07339); experiment: Inhibition of cathepsin D by radioligand binding assay
Beta-secretase 1 [4] = biological target: T2, Beta-secretase 1 (Homo sapiens, UniProt P56817); experiment: Ratio of IC50 for BACE1 in human KBV1 cells expressing APP 751 Swedish mutant in absence of tariquidar to IC50 for BACE1 in human KBV1 cells expressing APP 751 Swedish mutant in presence of tariquidar; assay type: cell-based
Beta-secretase 1 [5] = biological target: T2, Beta-secretase 1; experiment: Inhibition of BACE1 in human KBV1 cells expressing APP 751 Swedish mutant assessed as inhibition of amyloid beta (1 to 40) production after overnight incubation by ELISA in presence of tariquidar; assay type: cell-based
Beta-secretase 1 [6] = biological target: T2, Beta-secretase 1; experiment: Inhibition of BACE1 in human KBV1 cells expressing APP 751 Swedish mutant assessed as inhibition of amyloid beta (1 to 40) production after overnight incubation by ELISA in absence of tariquidar; assay type: cell-based
[7] = Drug uptake in rat CSF at 40 mg/kg, sc preadministered with ABT measured after 5 hrs by LC/MS/MS analysis; assay type: ADME, organism-based, Cerebrospinal fluid; design: dose 40 mg/kg, route subcutaneous; settings: read-out: Drug uptake
[8] = Drug uptake in rat CSF at 15 mg/kg, sc after 5 hrs by LC/MS/MS analysis; assay type: ADME, organism-based, Cerebrospinal fluid; design: dose 15 mg/kg, route subcutaneous; settings: read-out: Drug uptake
[9] = Drug uptake in rat CSF at 5 mg/kg, sc measured after 5 hrs by LC/MS/MS analysis; assay type: ADME, organism-based, Cerebrospinal fluid; design: dose 5 mg/kg, route subcutaneous; settings: read-out: Drug uptake
[10] = Drug uptake in rat brain at 40 mg/kg, sc preadministered with ABT measured after 5 hrs by LC/MS/MS analysis; assay type: ADME, organism-based; design: dose 40 mg/kg, route subcutaneous; settings: read-out: Drug uptake
[11] = Drug uptake in rat brain at 15 mg/kg, sc after 5 hrs by LC/MS/MS analysis; assay type: ADME, organism-based; design: dose 15 mg/kg, route subcutaneous; settings: read-out: Drug uptake
[12] = Drug uptake in rat brain at 5 mg/kg, sc measured after 5 hrs by LC/MS/MS analysis; assay type: ADME, organism-based; design: dose 5 mg/kg, route subcutaneous; settings: read-out: Drug uptake
[13] = Plasma concentration in rat at 40 mg/kg, sc preadministered with ABT measured after 5 hrs by LC/MS/MS analysis; assay type: ADME, organism-based; design: dose 40 mg/kg, route subcutaneous
[14] = Plasma concentration in rat at 5 mg/kg, sc measured after 5 hrs by LC/MS/MS analysis; assay type: ADME, organism-based; design: dose 5 mg/kg, route subcutaneous
[15] = Plasma concentration in rat at 15 mg/kg, sc after 5 hrs by LC/MS/MS analysis; assay type: ADME, organism-based; design: dose 15 mg/kg, route subcutaneous
Rattus norvegicus [16] = experiment: Antialzheimer activity in rat assessed as amyloid beta (1 to 40) level in CSF at 40 mg/kg, sc preadministered with ABT measured after 5 hrs by ELISA relative to control; assay type: functional; settings: route subcutaneous
Rattus norvegicus [17] = experiment: Antialzheimer activity in rat assessed as amyloid beta (1 to 40) level in CSF at 15 mg/kg, sc measured after 5 hrs by ELISA relative to control; assay type: functional; settings: route subcutaneous
Rattus norvegicus [18] = experiment: Antialzheimer activity in rat assessed as amyloid beta (1 to 40) level in CSF at 5 mg/kg, sc measured after 5 hrs by ELISA relative to control; assay type: functional; settings: route subcutaneous
Rattus norvegicus [19] = experiment: Antialzheimer activity in rat assessed as amyloid beta (1 to 40) level in brain at 40 mg/kg, sc preadministered with ABT measured after 5 hrs by ELISA relative to control; assay type: functional; settings: route subcutaneous
Rattus norvegicus [20] = experiment: Antialzheimer activity in rat assessed as amyloid beta (1 to 40) level in brain at 15 mg/kg, sc measured after 5 hrs by ELISA relative to control; assay type: functional; settings: route subcutaneous
Rattus norvegicus [21] = experiment: Antialzheimer activity in sc dosed rat assessed as reduction in amyloid beta (1 to 40) level in plasma measured after 5 hrs by ELISA relative to control; assay type: functional, organism-based
Rattus norvegicus [22] = experiment: Antialzheimer activity in rat assessed as amyloid beta (1 to 40) level in brain at 5 mg/kg, sc measured after 5 hrs by ELISA relative to control; assay type: functional; settings: route subcutaneous
Rattus norvegicus [23] = experiment: Antialzheimer activity in rat assessed as amyloid beta (1 to 40) level in plasma at 40 mg/kg, sc preadministered with ABT measured after 5 hrs by ELISA relative to control; assay type: functional; settings: route subcutaneous
Rattus norvegicus [24] = experiment: Antialzheimer activity in rat assessed as amyloid beta (1 to 40) level in plasma at 15 mg/kg, sc measured after 5 hrs by ELISA relative to control; assay type: functional; settings: route subcutaneous
Rattus norvegicus [25] = experiment: Antialzheimer activity in rat assessed as amyloid beta (1 to 40) level in plasma at 5 mg/kg, sc measured after 5 hrs by ELISA relative to control; assay type: functional; settings: route subcutaneous
[26] = biological target: Voltage-gated inwardly rectifying potassium channel KCNH2 (Homo sapiens, UniProt Q12809); experiment: Activity at human ERG channel by fluorescence-based thallium flux assay
Beta-secretase 1 [27] = biological target: T2, Beta-secretase 1; experiment: Ratio of IC50 for BACE1 in HEK293 cells expressing APP 695 Swedish mutant to Ki for BACE1; assay type: cell-based
Beta-secretase 1 [28] = biological target: T2, Beta-secretase 1; experiment: Inhibition of BACE1 in human HEK293 cells expressing APP 695 Swedish mutant assessed as inhibition of amyloid beta (1 to 40) production after overnight incubation by ELISA; assay type: cell-based
Beta-secretase 1 [29] = biological target: T2, Beta-secretase 1; experiment: Displacement of [3H]BMS-599240 from BACE1 expressed in HEK293 cells; assay type: cell-based

T2 sequence (P56817 whole entry): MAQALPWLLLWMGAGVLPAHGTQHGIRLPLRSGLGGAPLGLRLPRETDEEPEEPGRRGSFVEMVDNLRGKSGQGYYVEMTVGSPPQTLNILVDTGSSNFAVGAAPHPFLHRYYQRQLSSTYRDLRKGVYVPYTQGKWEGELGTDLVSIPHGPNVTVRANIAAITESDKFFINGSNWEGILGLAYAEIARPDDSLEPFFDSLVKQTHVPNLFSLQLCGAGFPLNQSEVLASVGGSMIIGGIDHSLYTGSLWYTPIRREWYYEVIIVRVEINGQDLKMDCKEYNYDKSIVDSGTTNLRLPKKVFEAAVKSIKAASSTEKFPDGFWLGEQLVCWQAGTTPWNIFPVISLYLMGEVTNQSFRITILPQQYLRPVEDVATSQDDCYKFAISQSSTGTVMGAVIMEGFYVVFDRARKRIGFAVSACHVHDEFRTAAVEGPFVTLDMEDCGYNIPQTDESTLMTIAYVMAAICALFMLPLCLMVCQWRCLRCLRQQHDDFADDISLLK
Cathepsin D (Homo sapiens), sequence (P07339 65-162 limits assumed): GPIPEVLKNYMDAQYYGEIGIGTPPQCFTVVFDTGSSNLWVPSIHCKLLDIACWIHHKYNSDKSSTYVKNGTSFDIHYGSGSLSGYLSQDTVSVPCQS
Cathepsin D (Homo sapiens), sequence (P07339 169-412 limits assumed): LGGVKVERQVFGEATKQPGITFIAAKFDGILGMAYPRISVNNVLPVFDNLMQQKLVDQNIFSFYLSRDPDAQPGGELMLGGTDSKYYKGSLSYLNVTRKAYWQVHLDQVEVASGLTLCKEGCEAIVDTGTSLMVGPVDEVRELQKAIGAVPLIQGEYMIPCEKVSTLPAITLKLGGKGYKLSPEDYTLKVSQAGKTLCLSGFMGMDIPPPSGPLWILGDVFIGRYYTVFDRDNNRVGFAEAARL
Voltage-gated inwardly rectifying potassium channel KCNH2, sequence (Q12809 whole entry): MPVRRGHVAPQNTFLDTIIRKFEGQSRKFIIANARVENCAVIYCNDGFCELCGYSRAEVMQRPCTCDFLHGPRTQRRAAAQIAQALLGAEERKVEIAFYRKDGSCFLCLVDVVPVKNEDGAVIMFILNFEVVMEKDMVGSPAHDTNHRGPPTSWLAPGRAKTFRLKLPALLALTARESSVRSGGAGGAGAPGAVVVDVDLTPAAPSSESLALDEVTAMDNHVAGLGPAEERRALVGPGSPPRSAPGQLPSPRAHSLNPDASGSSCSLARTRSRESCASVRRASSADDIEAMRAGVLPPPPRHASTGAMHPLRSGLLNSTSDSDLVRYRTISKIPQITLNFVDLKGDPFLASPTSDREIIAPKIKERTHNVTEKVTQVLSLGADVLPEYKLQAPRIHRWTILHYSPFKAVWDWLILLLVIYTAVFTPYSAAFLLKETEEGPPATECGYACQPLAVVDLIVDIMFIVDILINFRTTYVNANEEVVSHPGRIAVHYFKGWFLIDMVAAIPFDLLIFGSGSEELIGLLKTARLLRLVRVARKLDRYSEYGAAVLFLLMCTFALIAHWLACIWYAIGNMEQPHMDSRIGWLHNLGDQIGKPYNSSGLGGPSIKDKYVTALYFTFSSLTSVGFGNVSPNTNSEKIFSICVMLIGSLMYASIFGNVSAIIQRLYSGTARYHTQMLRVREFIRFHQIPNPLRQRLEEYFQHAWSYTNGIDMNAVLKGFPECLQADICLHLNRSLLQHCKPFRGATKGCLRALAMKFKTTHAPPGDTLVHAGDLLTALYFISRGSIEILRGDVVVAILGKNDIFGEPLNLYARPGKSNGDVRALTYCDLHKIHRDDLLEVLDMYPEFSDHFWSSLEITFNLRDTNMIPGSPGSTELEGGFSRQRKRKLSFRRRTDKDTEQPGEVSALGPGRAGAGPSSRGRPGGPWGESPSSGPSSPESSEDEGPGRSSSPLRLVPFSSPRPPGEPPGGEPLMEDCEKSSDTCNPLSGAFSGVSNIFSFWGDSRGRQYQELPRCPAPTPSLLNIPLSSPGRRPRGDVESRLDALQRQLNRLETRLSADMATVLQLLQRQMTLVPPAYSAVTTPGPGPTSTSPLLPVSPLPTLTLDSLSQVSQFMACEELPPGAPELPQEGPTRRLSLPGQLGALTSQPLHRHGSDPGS

With `COc1ccc(-c2nsc(C)c2C(=O)/N=C(\N)NCc2cc(C)c(NC(=O)CN3CCC3)c(Cl)c2)cc1` the inhibition [1] was “inactive”, the inhibition [2] was “inactive” and the inhibition [3] was “inactive”. The Ratio IC50 (Beta-secretase 1 [4]) was 36, the IC50 (Beta-secretase 1 [5]) was 5 nM and the IC50 (Beta-secretase 1 [6]) was 180 nM. For the same compound, the concentration at 5 h [7] was 39 nM, the concentration at 5 h [8] was 8 nM and the concentration at 5 h [9] was 4 nM. It also gave a concentration at 5 h [10] of 586 nM, a concentration at 5 h [11] of 320 nM and a concentration at 5 h [12] of 89 nM. For the same compound, the concentration at 5 h [13] was 6640 nM, the concentration at 5 h [14] was 378 nM and the concentration at 5 h [15] was 1170 nM. It also gave an Activity (Rattus norvegicus [16]) of 82%, an Activity (Rattus norvegicus [17]) of 98% and an Activity (Rattus norvegicus [18]) of 105%. For the same compound, the Activity (Rattus norvegicus [19]) was 94%, the Activity (Rattus norvegicus [20]) was 102% and the Activity (Rattus norvegicus [21]) was “Dose-dependent effect”. The Activity (Rattus norvegicus [22]) was 89%, the Activity (Rattus norvegicus [23]) was 4% and the Activity (Rattus norvegicus [24]) was 8%. For the same compound, the Activity (Rattus norvegicus [25]) was 18%, the Activity [26] was “Not Active” and the Ratio (Beta-secretase 1 [27]) was 1. The IC50 (Beta-secretase 1 [28]) was 5 nM and the Ki (Beta-secretase 1 [29]) was 5 nM.

Source: ChEMBL document CHEMBL2177026, “Acyl guanidine inhibitors of β-secretase (BACE-1): optimization of a micromolar hit to a nanomolar lead via iterative solid- and solution-phase library synthesis” (J Med Chem, 2012)
